{"source": "patent US8617906B2", "about": "“Identification and screening of triptolide target molecules” (priority 2004, dated 2013)", "key": {"p53 pathway": {"tested_on": "p53 pathway", "conditions": "cited from earlier work"}, "PC12 cells": {"tested_on": "PC12 cells", "conditions": "cited from earlier work"}, "14-3-3 ε (PG773)": {"biological_target": "T1, 14-3-3 ε (PG773) (Homo sapiens, UniProt P62258)", "T1 construct": "endogenous in cells; host or cells: Jurkat", "T1 sequence (P62258 whole entry)": "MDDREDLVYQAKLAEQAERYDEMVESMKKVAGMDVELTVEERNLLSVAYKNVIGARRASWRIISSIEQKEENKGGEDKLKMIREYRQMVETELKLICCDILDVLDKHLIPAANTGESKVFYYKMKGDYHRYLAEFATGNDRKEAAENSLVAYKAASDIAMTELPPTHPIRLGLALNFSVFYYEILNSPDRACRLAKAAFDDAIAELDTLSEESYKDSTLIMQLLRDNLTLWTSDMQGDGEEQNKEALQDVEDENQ", "test": "Isolation of proteins binding 3H-triptolide in Jurkat cells", "conditions": "3H-labeled compound incubated with Jurkat cells", "description": "(§1) Triptolide target molecules were isolated and identified by purification and identification of molecules that bind ^3H-triptolide. Jurkat cells from expanding cultures were labeled with ^3H-triptolide by cultivation at 37° C. with 5% CO2 for a period of time between a few hours and overnight (usually 6-7 hours) and harvested by centrifugation and washing in ice-cold phosphate buffered saline. The cells (usually 1-3×10^6/ml) were generally labeled with ^3H-triptolide to a final concentration of 35 nM (100 μCi/200 ml of medium). […]\n(§2) The cells were extracted with M-per buffer (Pierce) and homogenized in presence of a protease inhibitor cocktail, sometimes including other reagents such as deoxyribonuclease (DNase). […] When the extracts components were found not to be sufficiently purified, enriched or reduced in number, 2D gel electrophoresis was employed, followed by fluorography for ^3H-associated radioactivity detection, and MALDI/MS of the corresponding peptides (after proteolysis) and peptide fingerprinting. […]\n(§3) MALDI-MS peptide fingerprinting analysis identified HSP 90β (PG771) in fraction #4 and L-plastin (PG772) in fraction #9. […] A positive spot on the film (fluorographically positive, therefore positive for ^3H-associated radioactivity) was seen near the 29 kDa protein marker. […]"}, "[1]": {"tested_on": "T2, Hypothetical Protein (GI 11277141), superfamily HSP 90 (PG788) (Homo sapiens)", "T2 construct": "endogenous in cells; host or cells: Jurkat", "T2 sequence (P08238 2-724 limits assumed)": "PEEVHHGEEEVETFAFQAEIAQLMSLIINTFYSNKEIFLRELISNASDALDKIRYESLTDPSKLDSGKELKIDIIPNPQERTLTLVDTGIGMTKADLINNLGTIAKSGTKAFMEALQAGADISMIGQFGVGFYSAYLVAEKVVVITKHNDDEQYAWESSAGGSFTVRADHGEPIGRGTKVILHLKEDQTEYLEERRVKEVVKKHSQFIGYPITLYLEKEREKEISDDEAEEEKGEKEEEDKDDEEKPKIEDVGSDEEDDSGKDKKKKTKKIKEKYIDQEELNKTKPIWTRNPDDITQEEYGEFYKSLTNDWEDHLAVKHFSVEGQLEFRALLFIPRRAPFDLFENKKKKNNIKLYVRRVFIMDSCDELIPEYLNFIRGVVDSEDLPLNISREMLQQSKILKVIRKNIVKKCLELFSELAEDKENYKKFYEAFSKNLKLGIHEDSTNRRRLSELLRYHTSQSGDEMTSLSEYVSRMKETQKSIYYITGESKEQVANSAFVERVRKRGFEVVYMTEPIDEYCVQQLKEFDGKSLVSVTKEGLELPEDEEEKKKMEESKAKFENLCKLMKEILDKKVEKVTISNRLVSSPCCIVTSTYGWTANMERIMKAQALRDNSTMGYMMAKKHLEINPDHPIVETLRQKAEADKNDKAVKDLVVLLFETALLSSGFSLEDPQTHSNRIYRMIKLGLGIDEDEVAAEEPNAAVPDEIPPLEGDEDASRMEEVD", "test": "Isolation of proteins binding 3H-triptolide in Jurkat cells", "conditions": "3H-labeled Jurkat cell extract", "description": "(§4) Triptolide target molecules were isolated and identified by purification and identification of molecules that bind ^3H-triptolide. Jurkat cells from expanding cultures were labeled with ^3H-triptolide by cultivation at 37° C. with 5% CO2 for a period of time between a few hours and overnight (usually 6-7 hours) and harvested by centrifugation and washing in ice-cold phosphate buffered saline. The cells (usually 1-3×10^6/ml) were generally labeled with ^3H-triptolide to a final concentration of 35 nM (100 μCi/200 ml of medium). Collected cell pellets were pooled, and the cells were either extracted and subjected to separation and purification at that time, or were frozen and stored at −20° C. as pellets for extraction and investigation at a later time.\nas §2"}, "IL-2": {"tested_on": "IL-2", "conditions": "cited from earlier work"}, "L-plastin (PG772)": {"biological_target": "T3, L-plastin (PG772) (Homo sapiens, UniProt P13796)", "T3 construct": "Jurkat cells from expanding cultures were labeled with; endogenous in cells; host or cells: Jurkat", "T3 sequence (P13796 whole entry)": "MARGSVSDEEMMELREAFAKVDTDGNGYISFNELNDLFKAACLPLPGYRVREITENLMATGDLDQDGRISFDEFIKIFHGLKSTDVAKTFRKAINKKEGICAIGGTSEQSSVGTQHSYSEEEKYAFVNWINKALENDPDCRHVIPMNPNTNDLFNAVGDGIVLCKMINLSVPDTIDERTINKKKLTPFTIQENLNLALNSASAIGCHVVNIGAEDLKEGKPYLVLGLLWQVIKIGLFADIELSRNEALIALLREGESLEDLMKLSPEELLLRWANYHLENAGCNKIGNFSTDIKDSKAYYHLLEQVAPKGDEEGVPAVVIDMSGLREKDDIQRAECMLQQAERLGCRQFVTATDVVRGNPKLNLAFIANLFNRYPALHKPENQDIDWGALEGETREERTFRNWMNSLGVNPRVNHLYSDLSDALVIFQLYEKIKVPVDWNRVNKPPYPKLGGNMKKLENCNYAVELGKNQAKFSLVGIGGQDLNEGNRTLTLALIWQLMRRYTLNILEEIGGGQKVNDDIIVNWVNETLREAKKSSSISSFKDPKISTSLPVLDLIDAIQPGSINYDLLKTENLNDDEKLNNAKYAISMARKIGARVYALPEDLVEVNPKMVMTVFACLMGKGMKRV", "test": "Isolation of proteins binding 3H-triptolide in Jurkat cells", "conditions": "3H-labeled compound incubated with Jurkat cells", "description": "as §1, §2, §3"}, "HSP 90β (PG771)": {"biological_target": "T4, HSP 90β (PG771) (Homo sapiens, UniProt P08238)", "T4 construct": "Jurkat cells from expanding cultures were labeled with; endogenous in cells; host or cells: Jurkat", "T4 sequence (P08238 whole entry)": "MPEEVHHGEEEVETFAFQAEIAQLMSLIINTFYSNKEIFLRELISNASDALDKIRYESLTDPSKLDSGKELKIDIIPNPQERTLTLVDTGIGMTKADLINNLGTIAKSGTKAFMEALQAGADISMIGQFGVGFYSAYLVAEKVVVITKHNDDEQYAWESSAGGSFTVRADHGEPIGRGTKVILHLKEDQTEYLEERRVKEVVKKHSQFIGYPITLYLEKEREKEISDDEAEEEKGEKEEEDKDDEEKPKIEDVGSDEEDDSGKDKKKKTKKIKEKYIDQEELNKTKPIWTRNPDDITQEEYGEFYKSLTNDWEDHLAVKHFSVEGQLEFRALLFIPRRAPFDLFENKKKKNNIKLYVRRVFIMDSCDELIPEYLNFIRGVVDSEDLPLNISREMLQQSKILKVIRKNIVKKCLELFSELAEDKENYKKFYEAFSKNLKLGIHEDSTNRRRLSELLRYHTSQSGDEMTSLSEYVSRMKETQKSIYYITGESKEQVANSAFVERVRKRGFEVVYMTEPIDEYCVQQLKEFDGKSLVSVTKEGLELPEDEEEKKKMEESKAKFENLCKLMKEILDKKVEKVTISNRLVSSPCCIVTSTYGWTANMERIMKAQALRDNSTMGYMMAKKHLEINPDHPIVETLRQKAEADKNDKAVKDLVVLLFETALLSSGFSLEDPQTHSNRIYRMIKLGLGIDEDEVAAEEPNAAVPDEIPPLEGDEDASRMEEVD", "test": "Isolation of proteins binding 3H-triptolide in Jurkat cells (FPLC, 2D gel, fluorography, MALDI-MS)", "conditions": "3H-labeled compound incubated with Jurkat cells", "description": "as §1, §2, §3"}, "dopaminergic neurons": {"tested_on": "dopaminergic neurons", "conditions": "cited from earlier work"}, "[2]": {"biological_target": "T5, Hypothetical Protein—GI 7705346 (PG790) (Homo sapiens, UniProt Q9Y4R8)", "T5 construct": "Jurkat cells from expanding cultures were labeled with; endogenous in cells; host or cells: Jurkat", "T5 sequence (Q9Y4R8 whole entry)": "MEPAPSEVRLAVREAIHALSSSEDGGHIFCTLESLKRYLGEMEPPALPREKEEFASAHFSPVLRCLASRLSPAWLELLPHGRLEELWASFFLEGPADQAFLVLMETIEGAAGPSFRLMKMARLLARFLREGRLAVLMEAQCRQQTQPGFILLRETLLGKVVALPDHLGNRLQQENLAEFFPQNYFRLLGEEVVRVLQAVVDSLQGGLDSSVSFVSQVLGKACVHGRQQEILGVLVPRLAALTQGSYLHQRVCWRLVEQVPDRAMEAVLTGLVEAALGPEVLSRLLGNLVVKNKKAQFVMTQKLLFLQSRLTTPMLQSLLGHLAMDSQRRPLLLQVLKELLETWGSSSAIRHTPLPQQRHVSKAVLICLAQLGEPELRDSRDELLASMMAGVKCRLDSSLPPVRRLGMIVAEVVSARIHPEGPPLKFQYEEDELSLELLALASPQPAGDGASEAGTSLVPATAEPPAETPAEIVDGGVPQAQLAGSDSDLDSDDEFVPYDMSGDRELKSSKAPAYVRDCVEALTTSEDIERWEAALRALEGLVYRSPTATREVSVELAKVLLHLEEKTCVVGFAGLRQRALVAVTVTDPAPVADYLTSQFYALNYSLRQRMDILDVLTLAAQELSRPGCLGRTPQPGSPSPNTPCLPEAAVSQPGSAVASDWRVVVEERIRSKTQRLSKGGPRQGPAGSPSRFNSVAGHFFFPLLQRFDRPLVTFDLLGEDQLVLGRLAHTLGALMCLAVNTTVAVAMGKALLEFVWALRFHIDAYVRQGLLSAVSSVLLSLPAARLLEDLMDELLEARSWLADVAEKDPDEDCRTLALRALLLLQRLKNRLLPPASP", "test": "Isolation of proteins binding 3H-triptolide in Jurkat cells", "conditions": "3H-labeled Jurkat cell extract", "description": "as §4, §2"}, "[3]": {"tested_on": "Hypothetical Protein (GI 14758649), similar to heat shock protein (90 kDa) beta (PG787)", "test": "Isolation of proteins binding 3H-triptolide in Jurkat cells", "set-up": "species or system human", "conditions": "3H-labeled Jurkat cell extract", "description": "as §4, §2"}}, "data": [{"smiles": "CC(C)[C@]12O[C@H]1[C@@H]1O[C@]13[C@]1(O[C@H]1C[C@H]1C4=C(CC[C@@]13C)C(=O)OC4)[C@@H]2O", "note": "[triptolide]", "values": [{"measurement": "cell cycle arrest induced by p21 after p53 activation", "setting": "p53 pathway", "value": "inhibiting the cell cycle arrest induced by p21 after p53 activation"}, {"measurement": "β-amyloid-induced apoptosis", "setting": "PC12 cells", "value": "markedly inhibit β-amyloid-induced apoptosis"}, {"measurement": "β-amyloid-induced increase of intracellular Ca2+ concentration", "setting": "PC12 cells", "value": "inhibit the increase of intracellular Ca^2+ concentration induced by β-amyloid"}, {"measurement": "3H-associated protein identified as triptolide target: 14-3-3 ε", "setting": "14-3-3 ε (PG773)", "value": "identified"}, {"measurement": "3H-associated protein identified as triptolide target: GI 11277141", "setting": "[1]", "value": "identified"}, {"measurement": "inhibition of IL-2", "setting": "IL-2", "value": "inhibition of IL-2"}, {"measurement": "3H-associated protein identified as triptolide target: L-plastin", "setting": "L-plastin (PG772)", "value": "identified"}, {"measurement": "3H-associated protein identified as triptolide target: HSP 90β", "setting": "HSP 90β (PG771)", "value": "identified"}, {"measurement": "LPS-induced decrease in 3H-dopamine uptake and loss of tyrosine hydroxylase-positive neurons", "setting": "dopaminergic neurons", "value": "attenuates"}, {"measurement": "3H-associated protein identified as triptolide target: GI 7705346", "setting": "[2]", "value": "identified"}, {"measurement": "3H-associated protein identified as triptolide target: GI 14758649", "setting": "[3]", "value": "identified"}]}]}
